The values that follow come from US10407441B2, “Compositions and methods for treating neoplasia, inflammatory disease and other disorders” (Dana-Farber Cancer Institute, Inc., priority 2010, dated 2019).

For one data set, the target named is BRD4(1) (Homo sapiens (Human), UniProt O60885). In words: Alpha-assay acetyl-histone binding, BRD4 site 1. As for the experimental part:
The binding activity of lead compounds with the BRD4 site 1 was determined by Alpha-assay with a 12-point dose response curve (FIG. 56A).
Assays were performed as described previously^8 with minor modifications from the manufacturer's protocol (PerkinElmer, USA). All reagents were diluted in 50 mM HEPES, 100 mM NaCl, 0.1% BSA, pH 7.4 supplemented with 0.05% CHAPS and allowed to equilibrate to room temperature prior to addition to plates. […] Plates were sealed and incubated for a further 30 minutes, before the addition of 4 μl of streptavidin-coated donor beads (25 μg/ml) and 4 μl nickel chelate acceptor beads (25 μg/ml) under low light conditions. Plates were foil-sealed to protect from light, incubated at room temperature for 60 minutes and read on a PHERAstar FS plate reader (BMG Labtech, Germany) using an AlphaScreen 680 excitation/570 emission filter set. IC50 values were calculated in Prism 5 (GraphPad Software, USA) after normalization against corresponding DMSO controls and are given as the final concentration of compound in the 20 μl reaction volume.

In another data set the target is BRD4(2) (Homo sapiens (Human), UniProt O60885). In words: Alpha-assay acetyl-histone binding, BRD4 site 2.
In a further data set the test system is 797 cells. In words: Cell proliferation assay, 797 NMC cell line. Type of data set: cell-based. The note with it: Homo sapiens, read-out: Cell-assay IC50 797 cells.
The test system of another data set is 10326 cells. In words: Cell proliferation assay, 10326 patient-derived cell line. The note with it: Homo sapiens, read-out: Cell-assay IC50 10326 cells. Type of data set: cell-based.
The next data set has as its system NMC 797 xenografts. In words: NMC 797 xenograft efficacy study. Type of data set: in vivo, mouse. The source says:
Animals were followed daily for clinical symptoms.

In another data set the test system is BRD3-NUT cells. In words: BRD3-NUT murine xenograft model. Type of data set: in vivo, mouse. The note with it: 50 mg/kg IP 7 days/week. From the text: Mice were implanted subcutaneously with BRD3-NUT cells. Tumor measurement data were collected weekly. […] On day 24 post-injection, five mice from each group were euthanized and tumor samples were collected to be sent for lab analysis. Throughout the remainder of the study tumor samples were collected as mice were sacrificed. For all samples one half of the tumor was fixed in 10% formalin and the other half was flash frozen on dry ice. Treatment ended on day 32. Tumor volume and weights were collected weekly until all mice either became moribund or tumors reached 2 cm in any dimension. […] Upon cessation of therapy, tumor growth resumed. Tumor volume differences were significant at all points (p=7.65274E-09 at Day 24).

The target in a further data set is GFP-BRD4 (Homo sapiens (Human), UniProt O60885). In words: FRAP in U2OS cells transfected with GFP-BRD4. Format: cell-based.
Data set [1] concerns BRD4-dependent human carcinoma cells. In words: Annexin-V / propidium iodide flow cytometry (apoptosis). The note with it: 500 nM, 24 or 48 hours. Format: cell-based. As for the experimental part: (§1) Thus, early and late apoptosis was assessed with annexin-V and propidium iodide staining by flow cytometry.
Trypsinized cells were mixed 1:1 on ice with Annexin-V/propidium iodide buffer (10 mM HEPES pH 7.4, 140 mM NaCl, 2.5 mM CaCl2) containing Annexin V-FITC (BD Pharmingen, 1:500) and propidium iodide (Invitrogen, 1:1000). Samples were immediately analyzed on a BD FACS Canto II. Visualizations and analyses of apoptotic fractions were generated using FlowJo flow cytometry analysis software (Tree Star, Inc.).
(In general: Flow cytometry measures light scatter and fluorescence of single cells or particles in a stream.)

The subject of the next data set is TT. In words: Cell proliferation, TT squamous carcinoma cell line. Type of data set: cell-based, human. The note with it: 250 nM, 72 hours. As to the method: (§2) Data is presented as mean±s.d. (n=3). IC50 values were calculated by logistic regression.
Data set [2] concerns TE10. In words: Cell proliferation, TE10 squamous carcinoma cell line. Type of data set: cell-based, human. The note with it: 250 nM, 72 hours. As to the method: as §2
The target of the next data set is GFP-BRD4-NUT (Homo sapiens (Human), UniProt O60885+Q86Y26). The note with it: 500 nM.
A further data set deals with GFP-NUT (Homo sapiens (Human), UniProt Q86Y26). In words: FRAP in cells transfected with GFP-NUT. The note with it: 500 nM.
A further data set has as its system cellular receptors. In words: Off-target effects on cellular receptors.
For data set [3], the system named is TE10. In words: Differentiation immunohistochemistry in non-BRD4-dependent squamous carcinoma cell line.
Description: Media was then removed and chambers were washed with cold PBS. Cells were then fixed in 4% formaldehyde for 20 minutes at 4° C., washed with PBS and transferred to the Dana-Farber/Harvard Cancer Center (DF/HCC) Specialized Histopathology Services Core at Brigham and Women's Hospital for staining, as described below. […] Cells were then trypsinized and cell pellets were formed by centrifugation at 2,000 rpm for 10 minutes, stabilized with ½ volume of HistoGel (Richard-Allen Scientific) and 10% bovine serum albumin. Cell pellets were washed with PBS and fixed in 4% formaldehyde for 20 minutes at 4° C. The cells were then washed with PBS and transferred to the DF/HCC Core Laboratory at the Brigham and Women's Hospital for staining, as described below. […] All fixed material was embedded, sectioned and stained by the DF/HCC Core Laboratory at Brigham and Women's Hospital, using established optimized protocols. Images were obtained using an Olympus BX40 microscope (Olympus Imaging America, Center Valley, Pa.) and a Micropublisher 3.3 RTV color camera (QImaging, Surrey, BC).
The subject of the next data set is Per403 cells. In words: cells. The note with it: Homo sapiens, PER-403, 72 h, read-out: Per403 IC50 (inhibition of cell growth). As to the method: as §1
The test system of a further data set is NMC 11060 cells. In words: cells. The note with it: Homo sapiens, NMC 11060, 72 h, read-out: cellular viability IC50. As for the experimental part: Data is presented as mean±s.d. (n=3). IC50 values were calculated by logistic regression. […] (n=3).
(§3) In parallel with these studies, a patient with widely metastatic BRD4-NUT positive NMC arising from the mediastinum was identified. With the goal of developing a more clinically-relevant disease model, short-term cultures were established using discarded clinical material obtained from pleural fluid draining from a palliative chest tube in the patient.

The next data set relates to NMC 11060 xenografts. In words: Patient-derived NMC 11060 primary xenograft, PET imaging. Format: in vivo, mouse. The note with it: 50 mg kg^-1 daily for four days.
From the text: as §3
In general terms: In xenograft studies the graft and the host belong to different species.

Another data set has as its system NMC 797 and Per403 cells. In words: Differentiation and proliferation immunohistochemistry in NMC cells. Type of data set: cell-based, human. The note with it: BRD4-dependent NMC cells.

Where two headings read alike, the source gives them in different places.

GFP-NUT, sequence (Q86Y26 whole entry, looked up): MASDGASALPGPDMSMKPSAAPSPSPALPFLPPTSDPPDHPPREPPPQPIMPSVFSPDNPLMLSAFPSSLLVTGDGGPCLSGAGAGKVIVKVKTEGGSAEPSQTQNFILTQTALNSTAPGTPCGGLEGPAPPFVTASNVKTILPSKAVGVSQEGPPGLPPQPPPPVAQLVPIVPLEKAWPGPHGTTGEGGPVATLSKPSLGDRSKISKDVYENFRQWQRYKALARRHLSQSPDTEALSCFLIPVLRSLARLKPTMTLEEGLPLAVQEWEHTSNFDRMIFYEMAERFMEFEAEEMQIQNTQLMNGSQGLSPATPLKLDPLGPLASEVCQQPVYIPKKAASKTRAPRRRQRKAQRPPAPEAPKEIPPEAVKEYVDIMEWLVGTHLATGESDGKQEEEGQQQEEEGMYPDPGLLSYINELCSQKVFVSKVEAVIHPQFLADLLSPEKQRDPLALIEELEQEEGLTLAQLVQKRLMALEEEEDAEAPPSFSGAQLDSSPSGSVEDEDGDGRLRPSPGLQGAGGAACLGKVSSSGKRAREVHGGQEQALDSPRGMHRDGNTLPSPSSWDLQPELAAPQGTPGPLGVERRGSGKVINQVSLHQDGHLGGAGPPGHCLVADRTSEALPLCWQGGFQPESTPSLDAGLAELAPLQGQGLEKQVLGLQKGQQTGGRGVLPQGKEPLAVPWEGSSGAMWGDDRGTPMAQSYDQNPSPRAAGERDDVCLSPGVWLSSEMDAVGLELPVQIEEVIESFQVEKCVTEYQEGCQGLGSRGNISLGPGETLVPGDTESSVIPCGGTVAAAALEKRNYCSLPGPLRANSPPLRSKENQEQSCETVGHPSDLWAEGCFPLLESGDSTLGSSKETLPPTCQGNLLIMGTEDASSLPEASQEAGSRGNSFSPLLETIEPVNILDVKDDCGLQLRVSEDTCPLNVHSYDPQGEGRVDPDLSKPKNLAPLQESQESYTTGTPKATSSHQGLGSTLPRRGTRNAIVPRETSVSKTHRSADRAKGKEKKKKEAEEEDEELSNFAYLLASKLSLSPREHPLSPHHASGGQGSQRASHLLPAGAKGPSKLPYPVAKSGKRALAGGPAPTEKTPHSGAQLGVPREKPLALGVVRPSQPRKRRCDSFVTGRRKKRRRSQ
Description for 10326 cells: Curve fit was calculated by logistical regression (FIG. 56C). […] Curve fit was calculated by logistical regression.
Description for 797 cells: Curve fit was calculated by logistical regression.
Cells were seeded into white, 384-well microtiter plates (Nunc) at 500 cells per well in a total volume of 50 μL media. […] Compounds were delivered to microtiter assay plates by robotic pin transfer (PerkinElmer JANUS equipped with a V&P Scientific 100 nL pin tool). Following a 48 h incubation at 37° C., cells were lysed and wells were assessed for total ATP content using a commercial proliferation assay (Cell TiterGlo; Promega). Replicate measurements were analyzed with respect to dose and estimates of IC50 were calculated by logistic regression (GraphPad Prism).
Description for GFP-BRD4-NUT: (§4) FRAP studies were performed on U2OS cells as previously described^3,20. In brief, U2OS cells were transfected (lipofectamine; Invitrogen) with mammalian overexpression constructs encoding GFP chimera with BRD4, NUT and BRD4-NUT. A 5 μm^2 nuclear region was bleached with high laser intensity in one cell within each field, and measured for recovery with low laser intensity and a 150 μm pinhole. Images of identical fields were acquired using a Nikon C1 Plus confocal microscope equipped with a 37° C. heated chamber and FRAP modules over 90 seconds. Average intensities of the bleached region were measured over time and using MetaMorph v7, and normalized to an independent region of interest before bleaching.
Description for GFP-NUT: as §4

As for `Cc1sc2c(c1C)C(c1ccc(Cl)cc1)=NC(CC(=O)NCCCN1CCN(C)CC1)c1nnc(C)n1-2` (stereo not drawn) [JQ35], the “binding activity with the BRD4 site 1” value on BRD4(1) was “excellent binding activity”. Also, at BRD4(2), the “binding activity with the BRD4 site 2” value is “excellent binding activity”. For the same compound, the figures for the 50% inhibitory concentration (IC50) in the data set with 797 cells (proliferation after 72 hours) and in the data set with 10326 cells (proliferation after 72 hours) were 0.00609 µM and 3 nM, respectively.
Regarding `Cc1sc2c(c1C)C(c1ccc(Cl)cc1)=N[C@H](CC(=O)OC(C)(C)C)c1nnc(C)n1-2` [(R)-JQ1], the values for the concentration for half-maximal inhibition (IC50) in the data set with 797 cells (72 h) and with 10326 cells (72 h) were 1540 µM and 11800 nM, respectively.
As for `Cc1sc2c(c1C)C(c1ccc(Cl)cc1)=NC(CC(=O)OC(C)(C)C)c1nnc(C)n1-2` (racemic) [JQ1, tert-Butyl 2-(4-(4-chlorophenyl)-2,3,9-trimethyl-6H-thieno[3,2-f][1,2,4]triazolo[4,3-a][1,4]diazepin-6-yl)acetate], in the data set on NMC 797 xenografts (50 mg kg^-1 daily IP, 14 days), the “tolerability (toxicity, weight loss)” value is “well tolerated” and the “tumor growth (tumor volume by caliper)” value is recorded as “statistically-significant reduction in tumor growth”. For the same compound, the “FDG uptake by PET imaging” value in the data set with NMC 797 xenografts (50 mg kg^-1 daily IP, four days) is on record as “marked response on FDG uptake”. Moreover, the “keratin expression by quantitative IHC” value in the data set with NMC 797 xenografts (excised tumor specimens) is on record as “strong (3+) keratin expression”. Further, in the data set with BRD3-NUT cells, the body weight entry is reported as “mild weight loss” and the tumor volume entry is listed as “tumor regression”. The “fluorescence recovery of GFP-BRD4” value on GFP-BRD4 (500 nM) is listed as “immediate”. Moreover, in data set [1], the “apoptosis (annexin-V and propidium iodide staining)” value is “induced immediate and progressive apoptosis”. In addition, the “effects on cell proliferation” value with TT is on record as “Minimal effects”. Moreover, the “effects on cell proliferation” value in the data set with TE10 [2] is given as “Minimal effects”. In addition, the “time-to-recovery of fluorescence intensity, GFP-BRD4-NUT” value at GFP-BRD4-NUT is recorded as “markedly accelerated”. For the same compound, the “redistribution of GFP-NUT” value on GFP-NUT is “no effect”. In addition, the “off-target effects on cellular receptors” value in the data set on cellular receptors is reported as “few off-target effects”. Further, the differentiation effects entry in the data set with TE10 [3] is listed as “fails to exhibit differentiation effects”.
Take `Cc1sc2c(c1C)C(c1ccc(Cl)cc1)=NC(CC(=O)NCCN1CCOCC1)c1nnc(C)n1-2` (stereo not drawn) [JQ33]: the IC50 came to 0.00297 µM in the data set with 797 cells (proliferation after 72 hours) and 8 nM in the data set with 10326 cells (proliferation after 72 hours).
Take `Cc1sc2c(c1C)C(c1ccc(Cl)cc1)=N[C@@H](CC(=O)NCCc1cnc[nH]1)c1nnc(C)n1-2` [JQ8]: the “binding activity with the BRD4 site 1” value on BRD4(1) is “excellent binding activity”. The “binding activity with the BRD4 site 2” value on BRD4(2) is reported as “excellent binding activity”. Besides, the IC50 amounted to 0.6 µM with 797 cells (proliferation after 72 hours) and 2.8 nM in the data set with 10326 cells (proliferation after 72 hours).
For `Cc1sc2c(c1C)C(c1ccc(Cl)cc1)=N[C@@H](CC(=O)N/N=C/c1ncc[nH]1)c1nnc(C)n1-2` [JQ6], the “binding activity with the BRD4 site 1” value at BRD4(1) was “excellent binding activity”. On BRD4(2), the “binding activity with the BRD4 site 2” value is listed as “excellent binding activity”. Moreover, the IC50 in the data set on 797 cells (proliferation after 72 hours) turned out to be 0.001 µM; in the data set on 10326 cells (proliferation after 72 hours) it was 0.051 nM.
For the compound `Cc1sc2c(c1C)C(c1ccc(Cl)cc1)=N[C@@H](CC(=O)OC(C)(C)C)c1nnc(C)n1-2` [(S)-JQ1, (S)-tert-Butyl 2-(4-(4-chlorophenyl)-2,3,9-trimethyl-6H-thieno[3,2-f][1,2,4]triazolo[4,3-a][1,4]diazepin-6-yl)acetate], the half-inhibitory concentration (IC50) with 797 cells (72 h) was found to be 0.0056 µM; in the data set with 10326 cells (72 h), 1.5 nM.
In the case of `Cc1sc2c(c1C)C(c1ccc(Cl)cc1)=N[C@@H](CC(=O)OC(C)(C)C)c1nnc(C)n1-2` (single isomer, unassigned) [(+)-JQ1], the IC50 with Per403 cells was determined as 0.06 µM; in the data set with NMC 11060 cells, 0.004 µM. In addition, the “keratin expression by quantitative IHC” value in the data set on NMC 11060 xenografts is on record as “induction of keratin expression”. On GFP-BRD4 (250 nM, 5 h), the “fluorescence recovery of GFP-BRD4” value is “enhanced recovery”. The “differentiation and growth arrest phenotypes” value in the data set on NMC 797 and Per403 cells was “prompted”.
On to `Cc1sc2c(c1C)C(c1ccc(Cl)cc1)=N[C@@H](CC(=O)NCCN1CCN(C)CC1)c1nnc(C)n1-2` [JQ13], for which the “binding activity with the BRD4 site 1” value on BRD4(1) is “excellent binding activity”. The “binding activity with the BRD4 site 2” value at BRD4(2) is reported as “excellent binding activity”.

A word on the IC50: it is the concentration needed to halve the response being measured.
